Where “and” joins values, the source holds several entries; their conditions need not be identical. Equal values may be shown once. Read-outs that look alike come from different tables or passages of the source. Where only a bound is given, the exact number is not on record here.

One may read the IC50 as the point on the concentration scale where inhibition reaches its midpoint. The term EC50 denotes the concentration giving half of the maximal effect. A higher EC50 goes with weaker potency.

The test system of one series is A2780. As to the kind of experiment: Antiproliferation assay A2780 (Assay 7). The format is cell-based. The following applies: A2780 cells, CellTiter-Glo, single determinations, read-out: IC50 Antiproli A2780. The method in brief:
(§1)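 Cells plated in treatment plates plus a day 0 reference plate; incubated 72 h at 37 °C; CellTiter-Glo added, 10 min incubation, luminescence read; day 0 plate read at time zero.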
On the technique in general: ATP-based viability assays read luminescence as a measure of living cells.

In a further series the target is BCL-2 (Homo sapiens (Human), UniProt P10415). As to the kind of experiment: Protein-protein interaction assay BCL-2/Bad BH3 peptide (BCL-2 assay), TR-FRET. The series is classed as binding. The settings on record: BCL-2/Bad BH3 peptide TR-FRET; median. The procedure:
Assay 3 Protein-Protein Interaction assay: BCL-2/Bad BH3 Peptide (BCL-2 Assay)
The dose-dependent inhibition by the compounds described in this invention of the interaction between BCL-2 and the BH3 domain of Bad (both human) was determined using a steady state binding competition assay with time-resolved fluorescence energy transfer (TR-FRET) readout. For that purpose BCL-2 (amino acids 1-211, C-terminal fused to a hexahistidine (6× His) tag (SEQ ID 5) and a synthetic Bad BH3-derived peptide of sequence Biotin-PEG2-PEG2-NLWAAQRYGRELRR-Nle-SDEFVDSFKK-amide (SEQ ID 4) served as protein receptor and tracer ligand respectively. The recombinant BCL-2 protein (expressed in E. coli) was purchased from BPS Bioscience (San Diego, Calif., USA). The Bad BH3-derived peptide can be obtained from e.g. Biosyntan (Berlin, Germany).
In the assay 11 different concentrations of each compound (0.1 nM, 0.33 nM, 1.1 nM, 3.8 nM, 13 nM, 44 nM, 0.15 μM, 0.51 μM, 1.7 μM, 5.9 μM and 20 μM) were typically measured as duplicates in the same microtiter plate. For that, 100-fold concentrated DMSO solutions were prepared by serial dilutions (1:3.4) of a 2 mM stock solution in a clear, 384-well microtiter plate (Greiner Bio-One, Frickenhausen, Germany). From there, 50 nl were transferred in a dark test plate (Greiner Bio-One, Frickenhausen, Germany). The assay was initiated by addition of 2 μl of a 2,5-fold concentrated His-BCL-2 solution (usually for a 1 nM end concentration in 5 μl reaction volume) in aqueous assay buffer [50 mM Tris/HCl pH 7, 100 mM sodium chloride (NaCl), 50 mM potassium fluoride (KF), 0.005% Tween-20, 2 mM DTT, 0.1% bovine gamma globulin (BGG)] to the compounds in the assay plate. This was followed by a 10-minute incubation step at 22° C. for pre-equilibration of the putative complex between His-BCL-2 and the compounds. After that, 3 μl of a 1.67-fold concentrated solution (in assay buffer) consisting of Bad BH3-derived peptide (1 nM end concentration) and TR-FRET detection reagents [1.67 nM anti-His-Eu cryptate and 1.67 nM streptavidin-XL665 (both from Cisbio Bioassays, Codolet, France)], were added.
The mixture was incubated in the dark for one hour at 22° C. and then overnight at 4° C. The formation of BCL-2/Bad complexes was determined by measuring the resonance energy transfer of the anti-His-Eu-cryptate antibody to the streptavidin-XL665 present in the reaction. For that purpose, the fluorescence emission at 620 nm and 665 nm after excitation at 330-350 nm was measured in a TR-FRET measuring instrument, for instance a Rubystar or a Pherastar (both from BMG Lab Technologies, Offenburg, Germany) or a Viewlux (Perkin-Elmer). The ratio of the emission at 665 nm and at 622 nm was used as indicator of the amount of BCL-2/Bad complexes present.
The resulting data (ratio) were normalized, taking 0% inhibition as the mean value of control measurements (usually 32 data points) where all reagents were included. In this case 50 nl DMSO were used instead of compounds. A 100% inhibition corresponded to the mean value of control measurements (usually 32 data points) where all reagents except BCL-2 were included. IC50 values were determined by regression analysis based on a 4 parameter equation (minimum, maximum, IC50, Hill; Y=Max+(Min−Max)/(1+(X/IC50)^Hill) using the Screener Software (Genedata).
In general terms: In TR-FRET formats the signal depends on donor and acceptor labels being close together.

Series [1] has as its system SUDHL5. As to the kind of experiment: Induction of caspase-3/7 activity, SUDHL5 (Assay 4). The following applies: SUDHL5 cells. The series is classed as cell-based. The gist of the method: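 DLBCL lines treated with compounds for 3 h at 37° C.; caspase-3/7 activity read by Caspase-Glo 3/7 luminescence. Medium-only background subtracted; EC50 fitted with bottom fixed at 1 and top set to reference compound's maximal induction.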

A further series concerns SUDHL10. As to the kind of experiment: Induction of cytotoxicity, SUDHL10 (Assay 6). The following applies: read-out: IC50 Cytotox SUDHL10 [M] (median), SUDHL10 cells, 5 h, CellTiter-Glo.
For series [2], the system named is SUDHL5. Kind of series: Induction of cytotoxicity, SUDHL5 (Assay 6). The following applies: read-out: IC50 Cytotox SUDHL5 [M] (median), SUDHL5 cells, 5 h, CellTiter-Glo.
Method: In principle, compounds that induce apoptosis will concomitantly induce cell cytotoxicity. Therefore, cytotoxicity assays were run in parallel in SUDHL5 and SUDHL10 cells.
The different cell lines were plated in culture medium (RPMI 1640 [GIBCO #22400-089] supplemented with 10% Fetal Bovine Serum) at a density of 3,300 cells in 30 μl/well in a sterile, solid black, flat bottom, polystyrene, TC-treated 384-well microplate (Corning #3571) using Multidrop Combi Reagent Dispenser. As a control, medium without cells was also added to the plate. Cells were incubated in a humidified incubator at 37° C. overnight. On the next day, the cells were treated with compounds (stock solution, 10 mM in DMSO) using the HP D300 Digital Dispenser in a concentration range of 3.3×10e-5 M (33 μM) to 5×10e-9 M (5 nM) in a single-dot curve with at least 16 dilutions and a DMSO concentration of 0.33%. Rim wells were excluded. The cells were incubated for 5 h hours in a humidified incubator at 37° C. After this incubation, 30 μl of CellTiter-Glo® Luminescent Cell Viability reagent (Promega, G7573) was added to each well using the Multidrop Combi Reagent Dispenser, followed by 15 min incubation on a shaker at room temperature. Finally, luminescence was read at 0.1 ms, with a gain of 3000 using the PHERAstar FS microplate reader (BMG Labtech).
The Bella DRC Master Sheet was used to calculate IC50s, with fixed CI=0 and C0=1.
A further series deals with MV-4-11. Kind of series: Antiproliferation assay MV-4-11 (Assay 7). The format is cell-based. The following applies: MV-4-11 cells, CellTiter-Glo, single determinations, read-out: IC50 Antiproli MV-4-11. The method in brief:
as §1

The mark [3] stands for this setting: Homo sapiens, SU-DHL-5, 3 h, Caspase-Glo 3/7, median.

BCL-2, sequence (P10415 1-211): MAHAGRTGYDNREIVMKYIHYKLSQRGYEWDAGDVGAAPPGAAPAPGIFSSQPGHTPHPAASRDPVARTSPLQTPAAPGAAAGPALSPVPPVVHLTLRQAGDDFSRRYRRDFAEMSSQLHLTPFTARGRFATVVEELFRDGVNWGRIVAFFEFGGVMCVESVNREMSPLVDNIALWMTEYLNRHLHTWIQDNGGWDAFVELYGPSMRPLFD

As to `CCc1c2c(nn1C)COC/C=C\Cn1c(C(=O)O)c(CCCOc3cccc4ccccc34)c3ccc(F)c-2c31` (racemic) [Example 5, (rac)-(11Z)-3-ethyl-4-fluoro-2-methyl-7-[3-(naphthalen-1-yloxy)propyl]-2,10,13,15-tetrahydro-pyrazolo[4′,3′:9,10][1,6]oxazacycloundecino[8,7,6-hi]indole-8-carboxylic acid], the 50% inhibitory concentration (IC50) is 28.1 µM and 20.8 µM and 27.7 µM in the series on A2780 (72 h, listed as 05); 25.4 µM in the series with A2780 (Homo sapiens, A2780, 72 h); above 20 µM against BCL-2; 3.2e-06 M in the series with SUDHL10 (Homo sapiens, SU-DHL10, 5 h); 1.5e-06 M in the series with SUDHL5 [2] (Homo sapiens, SU-DHL-5, 5 h). This compound also registered an EC50 in the series with SUDHL5 [1] (setting [3]) of 1 µM.

Take `CCc1nn(C)c2c1-c1c(F)ccc3c(CCCOc4cccc5c4CCCC5)c(C(=O)O)n(c13)CCCCOC2` (racemic) [Example 44, (rac)-12-ethyl-13-fluoro-10-methyl-1-(3-((5,6,7,8-tetrahydronaphthalen-1-yl)oxy)propyl)-4,5,6,7,9,10-hexahydropyrazolo[4′,3′:9,10][1]oxa[6]azacycloundecino[8,7,6-hi]indole-2-carboxylic acid]: the IC50 in the series on MV-4-11 (Homo sapiens, MV4-11, 72 h) was 9.83 µM; against BCL-2 it was above 20 µM; in the series with SUDHL10 (Homo sapiens, SU-DHL10, 5 h), 4.2e-06 M; with SUDHL5 [2] (Homo sapiens, SU-DHL-5, 5 h) it was 1.9e-06 M. For the same compound, the EC50 with SUDHL5 [1] (setting [3]) is 1.6 µM.

As for `CCc1nn(C)c2c1-c1c(F)ccc3c(CCCOc4cc(C)c(Cl)c(C)c4)c(C(=O)O)n(c13)CCCCOC2` (racemic) [Example 46, (rac)-1-(3-(4-chloro-3,5-dimethylphenoxy)propyl)-12-ethyl-13-fluoro-10-methyl-4,5,6,7,9,10-hexahydropyrazolo[4′,3′:9,10][1]oxa[6]azacycloundecino[8,7,6-hi]indole-2-carboxylic acid], the IC50 is 21 µM with MV-4-11 (Homo sapiens, MV4-11, 72 h); 11.4 µM in the series with MV-4-11 (72 h); above 20 µM at BCL-2; 5.7e-06 M in the series on SUDHL10 (Homo sapiens, SU-DHL10, 5 h); 3.1e-06 M with SUDHL5 [2] (Homo sapiens, SU-DHL-5, 5 h). In the series on SUDHL5 [1] (setting [3]), the EC50 came to 2.5 µM.

As for `Cc1c2c(nn1C)COCCCCn1c(C(=O)O)c(CCCOc3ccc(F)c4ccccc34)c3ccc(F)c-2c31` (single isomer, unassigned; enantiomer 1) [Example 16, 4-fluoro-7-{3-[(4-fluoronaphthalen-1-yl)oxy]propyl}-2,3-dimethyl-2,10,11,12,13,15-hexahydro-pyrazolo[4′,3′:9,10][1,6]oxazacycloundecino[8,7,6-hi]indole-8-carboxylic acid (enantiomer 1)], the IC50 in the series on MV-4-11 (72 h) was 3.55 µM; against BCL-2, above 20 µM; in the series with SUDHL10, 4.3e-06 M; with SUDHL5 [2], 1.4e-06 M. For the same compound, the midpoint of the response with SUDHL5 [1] (3 h, Caspase-Glo 3/7, median), the EC50, lay at 0.72 µM.

Regarding `CCc1nn(C)c2c1-c1c(F)ccc3c(CCCOc4ccc(F)c5ccccc45)c(C(=O)O)n(c13)CCCCOC2` (single isomer, unassigned; enantiomer 1) [Example 42, 3-ethyl-4-fluoro-7-{3-[(4-fluoronaphthalen-1-yl)oxy]propyl}-1-methyl-1,10,11,12,13,15-hexahydropyrazolo[4′,3′:9,10][1,6]oxazacycloundecino[8,7,6-hi]indole-8-carboxylic acid (enantiomer 1)], the IC50 was 5.79 µM in the series with MV-4-11 (72 h), above 20 µM on BCL-2, 9.6e-06 M with SUDHL10 and 2e-06 M in the series on SUDHL5 [2]. The EC50 in the series on SUDHL5 [1] (3 h, Caspase-Glo 3/7, median) was found to be 1.8 µM.

With `Cc1c2c(nn1C)CNCCCCn1c(C(=O)O)c(CCCOc3cccc4ccccc34)c3ccc(F)c-2c31` (single isomer, unassigned; enantiomer 1) [Example 48, 4-fluoro-2,3-dimethyl-7-{3-[(naphthalen-1-yl)oxy]propyl}-10,11,12,13,14,15-hexahydro-2H-pyrazolo[3′,4′:8,9][1,6]diazacycloundecino[10,11,1-hi]indole-8-carboxylic acid (enantiomer 1)], the IC50 was 7.17 µM in the series with A2780 (72 h), above 20 µM against BCL-2, 1.9e-06 M in the series on SUDHL10 and 1.3e-06 M with SUDHL5 [2]. Moreover, in the series on SUDHL5 [1] (3 h, Caspase-Glo 3/7, median), a half-maximal response (EC50) required 1.2 µM.

The record behind these values is US11286263B2, “Macrocyclic fluorine substituted indole derivatives” (The Broad Institute, Inc., priority 2017, dated 2022).
